Data taken from patent US10632106B2, “Methods of cancer treatment with 2-(1′H-Indole-3′-carbonyl)-thiazole-4-carboxylic acid methyl ester” (Ariagen, Inc., priority 2009, dated 2020).

Assay: Effects of oral water administration on ITE dosed mice
Type: in vivo
Set-up: key to feces appearance: Moderate; Dry
Description: Oral injection of water was initiated at the same day i.p. administration of ITE was started. Daily oral gavage at 10 or 20 ml/kg was performed immediately following daily i.p. injection of ITE or DMSO continuously for the entire duration of the study. Both oral and i.p. injection were accidentally skipped at day 14 due to a mistake of the experimenter(s) and all of the other dosing were executed normally. Bodyweights (individual), food consumed (in group), feces weights (in group), and feces appearance (in group) were recorded every two days. Death of animal(s) and approximate cause of death etc. were also recorded.

[1] = ITE-L 200 mg/kg i.p. + Water-0, day 4
[2] = ITE-L 200 mg/kg i.p. + Water-0, day 6
[3] = ITE-L 200 mg/kg i.p. + Water-0, day 8
[4] = ITE-L 200 mg/kg i.p. + Water-0, day 10
[5] = ITE-L 200 mg/kg i.p. + Water-0, day 12
[6] = ITE-L 200 mg/kg i.p. + Water-0, day 14
[7] = ITE-L 200 mg/kg i.p. + Water-0, day 18 (line r16)
[8] = ITE-L 200 mg/kg i.p. + Water-0, day 18 (line r17)
[9] = ITE-L 200 mg/kg i.p. + Water-0, day 20
[10] = ITE-L 200 mg/kg i.p. + Water-0, day 22
[11] = ITE-L 200 mg/kg i.p. + Water-0, day 24
[12] = ITE-L 200 mg/kg i.p. + Water-0, day 26
[13] = ITE-L 200 mg/kg i.p. + Water-0, day 28
[14] = ITE-L 200 mg/kg i.p. + Water-0, day 30
[15] = ITE-L 200 mg/kg i.p. + Water-0, day 32
[16] = ITE-L 200 mg/kg i.p. + Water-0, day 34
[17] = ITE-L 200 mg/kg i.p. + Water-0, day 36
[18] = ITE-L 200 mg/kg i.p. + Water-H 20 ml/kg, day 4
[19] = ITE-L 200 mg/kg i.p. + Water-H 20 ml/kg, day 6
[20] = ITE-L 200 mg/kg i.p. + Water-H 20 ml/kg, day 8
[21] = ITE-L 200 mg/kg i.p. + Water-H 20 ml/kg, day 10
[22] = ITE-L 200 mg/kg i.p. + Water-H 20 ml/kg, day 12
[23] = ITE-L 200 mg/kg i.p. + Water-H 20 ml/kg, day 14
[24] = ITE-L 200 mg/kg i.p. + Water-H 20 ml/kg, day 18 (line r16)
[25] = ITE-L 200 mg/kg i.p. + Water-H 20 ml/kg, day 18 (line r17)
[26] = ITE-L 200 mg/kg i.p. + Water-H 20 ml/kg, day 20
[27] = ITE-L 200 mg/kg i.p. + Water-H 20 ml/kg, day 22
[28] = ITE-L 200 mg/kg i.p. + Water-H 20 ml/kg, day 24
[29] = ITE-L 200 mg/kg i.p. + Water-H 20 ml/kg, day 26
[30] = ITE-L 200 mg/kg i.p. + Water-H 20 ml/kg, day 28
[31] = ITE-L 200 mg/kg i.p. + Water-H 20 ml/kg, day 30
[32] = ITE-L 200 mg/kg i.p. + Water-H 20 ml/kg, day 32
[33] = ITE-L 200 mg/kg i.p. + Water-H 20 ml/kg, day 34
[34] = ITE-L 200 mg/kg i.p. + Water-H 20 ml/kg, day 36
[35] = ITE-L 200 mg/kg i.p. + Water-L 10 ml/kg, day 4
[36] = ITE-L 200 mg/kg i.p. + Water-L 10 ml/kg, day 6
[37] = ITE-L 200 mg/kg i.p. + Water-L 10 ml/kg, day 8
[38] = ITE-L 200 mg/kg i.p. + Water-L 10 ml/kg, day 10
[39] = ITE-L 200 mg/kg i.p. + Water-L 10 ml/kg, day 12
[40] = ITE-L 200 mg/kg i.p. + Water-L 10 ml/kg, day 14
[41] = ITE-L 200 mg/kg i.p. + Water-L 10 ml/kg, day 18 (line r16)
[42] = ITE-L 200 mg/kg i.p. + Water-L 10 ml/kg, day 18 (line r17)
[43] = ITE-L 200 mg/kg i.p. + Water-L 10 ml/kg, day 20
[44] = ITE-L 200 mg/kg i.p. + Water-L 10 ml/kg, day 22
[45] = ITE-L 200 mg/kg i.p. + Water-L 10 ml/kg, day 24
[46] = ITE-L 200 mg/kg i.p. + Water-L 10 ml/kg, day 26
[47] = ITE-L 200 mg/kg i.p. + Water-L 10 ml/kg, day 28
[48] = ITE-L 200 mg/kg i.p. + Water-L 10 ml/kg, day 30
[49] = ITE-L 200 mg/kg i.p. + Water-L 10 ml/kg, day 32
[50] = ITE-L 200 mg/kg i.p. + Water-L 10 ml/kg, day 34
[51] = ITE-L 200 mg/kg i.p. + Water-L 10 ml/kg, day 36

With `COC(=O)c1csc(C(=O)c2c[nH]c3ccccc23)n1` [ITE, 2-(1′H-indole-3′-carbonyl)-thiazole-4-carboxylic acid methyl ester] the feces appearance [1] was “M”, the “number of mice that died” value [1] was 0 and the feces appearance [2] was “M”. The “number of mice that died” value [2] was 0, the feces appearance [3] was “D” and the “number of mice that died” value [3] was 0. The feces appearance [4] was “D”, the “number of mice that died” value [4] was 0 and the feces appearance [5] was “D”. For the same compound, the “number of mice that died” value [5] was 0, the feces appearance [6] was “D” and the “number of mice that died” value [6] was 0. For the same compound, the feces appearance [7] was “D”, the “number of mice that died” value [7] was 0 and the feces appearance [8] was “D”. For the same compound, the “number of mice that died” value [8] was 0, the feces appearance [9] was “D” and the “number of mice that died” value [9] was 0. For the same compound, the feces appearance [10] was “D”, the “number of mice that died” value [10] was 0 and the feces appearance [11] was “D”. For the same compound, the “number of mice that died” value [11] was 0, the feces appearance [12] was “D” and the “number of mice that died” value [12] was 0. The feces appearance [13] was “D”, the “number of mice that died” value [13] was 1 and the feces appearance [14] was “D”. For the same compound, the “number of mice that died” value [14] was 1, the feces appearance [15] was “D” and the “number of mice that died” value [15] was 1. For the same compound, the feces appearance [16] was “D”, the “number of mice that died” value [16] was 1 and the feces appearance [17] was “D”. For the same compound, the “number of mice that died” value [17] was 1, the feces appearance [18] was “M” and the “number of mice that died” value [18] was 0. The feces appearance [19] was “M”, the “number of mice that died” value [19] was 0 and the feces appearance [20] was “D”. The “number of mice that died” value [20] was 0, the feces appearance [21] was “D” and the “number of mice that died” value [21] was 0. For the same compound, the feces appearance [22] was “D”, the “number of mice that died” value [22] was 0 and the feces appearance [23] was “D”. The “number of mice that died” value [23] was 0, the feces appearance [24] was “D” and the “number of mice that died” value [24] was 0. The feces appearance [25] was “D”, the “number of mice that died” value [25] was 0 and the feces appearance [26] was “D”. The “number of mice that died” value [26] was 0, the feces appearance [27] was “D” and the “number of mice that died” value [27] was 0. The feces appearance [28] was “D”, the “number of mice that died” value [28] was 0 and the feces appearance [29] was “D”. For the same compound, the “number of mice that died” value [29] was 0, the feces appearance [30] was “M” and the “number of mice that died” value [30] was 0. For the same compound, the feces appearance [31] was “M”, the “number of mice that died” value [31] was 0 and the feces appearance [32] was “M”. For the same compound, the “number of mice that died” value [32] was 0, the feces appearance [33] was “M” and the “number of mice that died” value [33] was 0. The feces appearance [34] was “M”, the “number of mice that died” value [34] was 0 and the feces appearance [35] was “M”. The “number of mice that died” value [35] was 0, the feces appearance [36] was “M” and the “number of mice that died” value [36] was 0. The feces appearance [37] was “D”, the “number of mice that died” value [37] was 0 and the feces appearance [38] was “D”. The “number of mice that died” value [38] was 0, the feces appearance [39] was “D” and the “number of mice that died” value [39] was 0. The feces appearance [40] was “D”, the “number of mice that died” value [40] was 0 and the feces appearance [41] was “D”. For the same compound, the “number of mice that died” value [41] was 0, the feces appearance [42] was “D” and the “number of mice that died” value [42] was 0. For the same compound, the feces appearance [43] was “D”, the “number of mice that died” value [43] was 0 and the feces appearance [44] was “D”. The “number of mice that died” value [44] was 0, the feces appearance [45] was “D” and the “number of mice that died” value [45] was 0. For the same compound, the feces appearance [46] was “D”, the “number of mice that died” value [46] was 0 and the feces appearance [47] was “M”. The “number of mice that died” value [47] was 0, the feces appearance [48] was “M” and the “number of mice that died” value [48] was 0. The feces appearance [49] was “M”, the “number of mice that died” value [49] was 0 and the feces appearance [50] was “M”. For the same compound, the “number of mice that died” value [50] was 0, the feces appearance [51] was “M” and the “number of mice that died” value [51] was 0.
